Experiments:
[1] = Hygroscopicity study (DVS); assay type: physicochemical; settings: 25° C. and 80% RH
Protocol: Dynamic vapor adsorption (DVS) curves were collected on DVS Intrinsic plus of Surface Measurement Systems (SMS) company. The relative humidity at 25° C. was corrected with the deliquescent points of LiCl, Mg(NO3)2 and KCl.
[…]

[2] = Solid stability test of the crystal form; assay type: physicochemical
Protocol: The sample was placed at the bottom of an HPLC vial to form a thin layer. The samples were placed in a chamber at a constant temperature and humidity of 60° C./75% RH conditions and in a 92.5% RH desiccator. The bottles were sealed with a sealing film. Some small holes were punched in the sealing film to ensure that the samples were fully in contact with the ambient air. The caps of the sample bottles placed at 60° C. under light and light-shielding conditions (samples under light-shielding conditions were wrapped in tin foil) were tighten.

Cc1cccc(CN2C(=O)c3nc(-c4nc(Nc5ccnn5C)ncc4C)sc3C23COC3)n1 [crystal form A of WX001]
hygroscopicity classification [1]: almost no hygroscopicity
ΔW, weight increase by moisture absorption ([1]; DVS): 0.1134%
Crystal form ([2]; 0 day): Crystal form A
Crystal form ([2]; 60° C., 5 days): Crystal form A
Crystal form ([2]; 60° C., 10 days): Crystal form A
Crystal form ([2]; 60° C./75% RH, 1 month): Crystal form A
Crystal form ([2]; 60° C./75% RH, 2 months): Crystal form A
Crystal form ([2]; 60° C./75% RH, 3 months): Crystal form A
Crystal form ([2]; 92.5% RH, 5 days): Crystal form A
Crystal form ([2]; 92.5% RH, 10 days): Crystal form A
Crystal form ([2]; Control group of light-shielding, taking points simultaneously with visible light + UV group): Crystal form A
Crystal form ([2]; Control group of light-shielding, taking points simultaneously with visible light group): Crystal form A
Crystal form ([2]; Visible light (ICH conditions), reaching illumination of 1.2E+06 Lux · hrs): Crystal form A
Crystal form ([2]; Visible light + UV (ICH conditions), reaching illumination of 200 W · hrs/m^2): Crystal form A
solid stability, conclusion ([2]; all conditions of Table 15): good stability
